Experimental data reported in US20240034742A1, “DOSING REGIMENS FOR CYCLIN-DEPENDENT KINASE 7 (CDK7) INHIBITORS” (Syros Pharmaceuticals, Inc., priority 2020, published 2024).

Tests used:
HCC70 cell line = experiment: Inhibition of cell proliferation (CyQUANT Direct Cell Proliferation Assay); format: cell-based; details: Homo sapiens, 72-hour proliferation assay
Protocol: The HCC70 cell line was derived from human TNBC, and we tested representative compounds of the invention, at different concentrations (from […]; 0.5 log serial dilutions), for their ability to inhibit the proliferation of those cells. More specifically, we tested the same compounds tested above for CDK7 selectivity (the structures of which are shown in FIG. 1), and we used the known CDK inhibitors dinaciclib (or N-((1S,3R)-3-((5-chloro-4-(1H-indol-3-yl) pyrimidin-2-yl)amino)cyclohexyl)-5-((E)-4-(dimethylamino)but-2-enamido)picolinamide) and triptolide as positive controls. The cells were grown in ATCC-formulated RPMI-1640 medium (ATCC 30-2001) supplemented with 10% fetal bovine serum (FBS), at 37° C. in a humidified chamber in the presence of 5% CO2. We conducted proliferation assays over a 72-hour time period using a CyQUANT® Direct Cell Proliferation Assay (Life Technologies, Chicago, IL USA) according to the manufacturer's directions and utilizing the reagents supplied with the kit.

[1] = tested on: 12 PDX models representing SCLC, TNBC and HGSOC; experiment: Tumor growth inhibition in TNBC, HGSOC and SCLC PDX models
Protocol: (§1) In the TNBC, SCLC, and HGSOC models, tumor volume was measured during the treatment period and for an additional 21 days after treatment ceased. […] The same calculations were used for end of study (day 42).
Dosing was initiated when tumors were 150-300 mm^3. […] TGI was calculated on the last day of dosing using the formula: TGI=(Vc1−Vt1)/(Vc0−Vt0), where Vc1 and Vt1 are the mean volumes of control and treated groups at the time of tumor extraction, while Vc0 and Vt0 are the same groups at the start of dosing.

[2] = tested on: ST390 (modeling pancreatic ductal adenocarcinoma (PDAC)); experiment: Tumor growth inhibition in PDAC PDX model ST390; details: 6 mg/kg QD PO, over the time examined (~28 days)
Protocol: as §1

[3] = tested on: patients with advanced solid tumors; experiment: Phase 1, first-in-human dose escalation study
Protocol: We focused on safety, tolerability, PK, and PD (as assessed by a PD gene expression marker, POLR2A mRNA) in a 28-day single agent continuous daily dosing regimen and a 3-week-on, I-week-off combination regimen with fulvestrant.
Safety and tolerability, including cycle-1 dose-limiting toxicities (DLTs) were evaluated. Dose-limiting toxicities were graded using the National Cancer Institute Common Toxicity Criteria for Adverse Events (NCI-CTCAE) version 5.0. Serial plasma PK and PD in peripheral blood mononuclear cells (PBMCs) were obtained on days 1 and 15 in cycle 1. […] Tumor responses were assessed per RECIST version 1.1.

[4] = tested on: PDX models with oncogenic alterations in the RB pathway and MAPK pathway; experiment: Anti-tumor activity in PDX models with RB or MAPK pathway alterations; format: in vivo; details: well-tolerated doses; models from SCLC, TNBC, HGSOC, CRC, PDAC, NSCLC patients
[5] = tested on: palbociclib and fulvestrant double-resistant ER+BC PDX model (ST941); experiment: Tumor growth inhibition in palbociclib and fulvestrant double-resistant ER+BC PDX model ST941; format: in vivo, mice; details: last day of 28 days dosing, Compound 101 6 mg/kg QD PO, fulvestrant 2.5 mg/kg weekly SC, palbociclib 50 mpk QD PO
Protocol: Tumor growth inhibition was evaluated in estrogen receptor-positive breast cancer (ER-BC) PDX models selected in vivo for resistance to the CDK4/6 inhibitor palbociclib (ST1799, […]) or resistance to both palbociclib and fulvestrant (ST941, n=1), Dosing was initiated when tumors were 100-200 mm^3.

[6] = single agent and in combination with fulvestrant

In the case of `CC1(C)CC[C@H](Nc2ncc(C(F)(F)F)c(-c3c[nH]c4c(P(C)(C)=O)c(C#N)ccc34)n2)CN1` [Compound 101, (S)-7-(dimethylphosphoryl)-3-(2-((6,6-dimethylpiperidin-3-yl)amino)-5-(trifluoromethyl)pyrimidin-4-yl)-1H-indole-6-carbonitrile], the EC50 (HCC70 cell line) is reported as 3.6 nM, the “TGI in TNBC (BR5010), SCLC (LU5178) and HGSOC (OV15398) PDX models” value ([1]; 10 mg/kg QD or 5 mg/kg BID (TNBC), 3 mg/kg BID (SCLC, HGSOC), PO, 21 days, plus 21 days observation) is reported as “deep and sustained TGI, including regressions” and the “TGI at the end of the 21-day dosing period in all models” value ([1]; 12 PDX models, 6 or 10 mg/kg QD or 3 or 5 mg/kg BID PO) is reported as “at least 50%”. For the same compound, the “TGI in the subset of models (58%, 7/12) with deep and sustained responses” value ([1]; TGI or regression, no tumor regrowth for 21 days after treatment discontinuation) was > 95%, the “tolerability: body weight” value ([1]; all once-daily doses tested, tumor-bearing mice) was “no evident body weight loss” and the MTD ([1]; tumor-bearing mice) was “above 10 mg/kg once daily”. For the same compound, the “Tumor growth inhibition (TGI)” value [2] was 100%, the “pharmacodynamics: POLR2A mRNA in PBMCs and CDK7 occupancy” value ([3]; 3 mg daily) was “induced POLR2A elevations associated with regressions in preclinical models and target levels of CDK7 occupancy in patients” and the dose-limiting events ([3]; cohort receiving 4 mg doses, continuous daily (Grade 3 fatigue; abdominal pain)) was “two”. The dose-limiting events ([3]; cohort receiving 5 mg doses, continuous daily (Grade 3 nausea; thrombocytopenia)) was “two”, the “patients who developed an SAE (all causality)” value ([3]; four of 13 patients) was 31% and the “grade of the majority of reported adverse events” value ([3]; in vivo) was “low grade”. The “accumulation with repeated dosing” value [3, 6] was “minimal accumulation”, the “dose proportionality of PK” value [3, 6] was “approximately dose proportional PK” and the “interpatient variability of PK” value [3, 6] was “moderate to high interpatient variability”. The steady state half-life [3, 6] was “compatible with once daily dosing”, the “best response (RECIST 1.1)” value ([3]; single agent, 3 mg daily, two patients (HR+ breast cancer, colorectal cancer)) was “stable disease” and the “best response (RECIST 1.1)” value ([3]; single agent, 5 mg daily, one patient, esophageal cancer) was “stable disease”. The MTD ([3]; single agent, oral, continuous daily dosing cohorts) was 3 mg, the “response (RECIST 1.1)” value ([3]; single agent, two patients with ovarian cancer, 1 mg and 3 mg daily) was “progressive disease” and the anti-tumor activity [4] was “robust anti-tumor activity”.
With `C[C@]12CC[C@@H]3c4ccc(O)cc4C[C@@H](CCCCCCCCC[S+]([O-])CCCC(F)(F)C(F)(F)F)[C@H]3[C@@H]1CC[C@@H]2O` (some centres unmarked) [fulvestrant] the “Tumor growth inhibition (TGI)” value [5] was “no activity”.
`CC(=O)c1c(C)c2cnc(Nc3ccc(N4CCNCC4)cn3)nc2n(C2CCCC2)c1=O` [palbociclib] was tested, and the “Tumor growth inhibition (TGI)” value [5] was “no activity”.
